According to PMC12562324, “Surfactin Structural Variants Differentially Modulate Plant Immune Responses” (Biomolecules, 2025):

Key:
Botrytis cinerea = experiment: Induced systemic resistance (ISR) against B. cinerea leaf infection after root treatment; assay type: in vivo; settings: Arabidopsis thaliana Col-0, hydroponic, 10 µM at roots 24 h before leaf infection, scored 4 dpi vs mock (0.1% EtOH); n = 30 from two independent experiments; Figure 5
Protocol: Plants were grown for 4 weeks in hydroponic conditions in Araponics systems containing a nutrient solution (0.25% (v/v) FLORAMICRO®, 0.25% (v/v) FLORABLOOM®, 0.25% (v/v) FLORAGRO®; General Hydroponics®, in volume ratio 1:1:1, as recommended by the manufacturer), with a photoperiod of 12 h and a temperature of 22 °C. Plants were then transferred into 10 mL vials filled with fresh nutrient solution and treated at the root level with CLPs or ethanol (mock treatment) to obtain final concentrations of 10 µM and 0.1%, respectively. After incubation for 24 h, plants were inoculated with Botrytis cinerea (Helotiales: Sclerotiniaceae) as the conidia solution. Spores were collected from B. cinerea grown on PDA plates for 4 weeks using a solution composed of 1.75 g/L KH2PO4; 0.74 g/L MgSO4; 4 g/L glucose, and 0.02% (v/v) Tween 20. After spore collection, the concentration was adjusted to 5 × 10^5 spores per mL, and spores were incubated at 30 °C for eight hours. Inoculation was conducted by inoculating a drop of 3 µL of conidia solution onto seven leaves per plant and fifteen plants per treatment. The number of spreading lesions was evaluated 96 h post infection.

[1] = system: protoplasts isolated from roots of Arabidopsis thaliana Col-0; experiment: [ROS]intra burst in root protoplasts, DCFH-DA; assay type: cell-based; settings: 10 µM, fold increase in fluorescence at 5 min; n = 12 from three independent experiments; Figure 2D
Protocol: Two-week-old Arabidopsis thaliana seedling roots (from 27 mg seeds) were collected and were cut into 1–2 mm segments and incubated in a protoplasting solution (20 mM MES pH 5.7, 0.4 M mannitol, 20 mM KCl, 10 mM CaCl2, 0.1% (w/v) BSA, 1.5% (w/v) cellulase R10 (Duchefa Biochemie, Haarlem, The Netherlands), 0.4% (w/v) macerozyme R10 (Duchefa Chimie)) for 3 h at room temperature and in the dark. After incubation, 1 mL of solution A (154 mM NaCl, 5 mM KCl, 125 mM CaCl2, 4 mM MES, pH = 5.7) was added inside. The suspension was agitated gently and filtered by a 70 µm pore filter to remove extra root debris. Filtered suspension was centrifuged at 850 g for 6 min at room temperature, and the pelleted protoplasts were rinsed three times with solution B (4 mM MES pH 5.7, 154 mM NaCl, 125 mM CaCl2, 5 mM KCl) before being resuspended in solution C (2 mM MES pH 5.7, 0.5 M mannitol, 20 mM KCl, 2 mM CaCl2) at a working concentration of 1–2 × 10^5 cells per mL. For [ROS]intra measurements in protoplasts, protoplasts isolated from roots of Arabidopsis thaliana Col-0 plants were incubated for 10 min with 5 µM of DCFH-DA. Then, wells of black 96-well microplates (96 Flat Black-Greiner Bio-One^TM CellStar^TM, Fischer Scientific) were loaded with 150 µL of protoplasts solution per well. After the addition of 50 µL of four-times-concentrated treatment, the fluorescence was recorded every minute using a microplate reader with an excitation filter at 485 ± 20 nm and emission filter at 535 ± 25 nm. The data were processed as for the roots.

[2] = system: Arabidopsis thaliana roots; experiment: Intracellular NO (RNS burst) in roots, DAF-DA probe; assay type: cell-based; settings: for NO accumulation in roots vs mock: 10 µM, DAF-DA fluorescence fold change at 20 min vs mock (DMSO 0.1%), n = 12 from three independent experiments, Figure 3A,B
Protocol: For the detection of intracellular NO, roots were processed as described above and 200 µL sterile water was replaced by 200 µL 5 μM DAF-DA in a buffered solution (10 mM Tris/HCl, pH = 7.4). Roots were incubated at room temperature for 1 h in the absence of light and then washed 3 times with Tris/HCl (10 mM, pH = 7.4). The fluorescence emitted by DAF-DA was detected by excitation at 495 nm and emission at 515 nm. Experiments where NO was measured after pretreatment with the calcium channel blocker or calcium chelator included an additional step where LaCl3 (10 mM; Merck Chemicals SA, Hoeilaart, Belgium) or EGTA (1 mM; Merck Chemicals SA, Hoeilaart, Belgium) was added three minutes before treatments. Data were processed as described above for ROS. For NO measurements in protoplasts, the suspension was incubated in the same conditions before being distributed (50 µL) in microplate wells and treated with the CLPs at a 10 µM final concentration or with 0.1% DMSO as a mock.

[3] = UPLC-MS retention on C18 as relative hydrophobicity; assay type: physicochemical; settings: chromatographic, C18 (BEH C18 1.7 µm), water/ACN with 0.1% TFA gradient, 40 °C; order of homologue groups Srf, Liche, Pumi; Figure 1B,D,F
Text: The purified material was freeze-dried (lyophilisator Martin Christ alpha 3–4 LSC BASIC) before storage. All the CLPs used in this research were freshly prepared from powder before each experiment. The concentration of Liche or Pumi was referred to the concentration of Srf and determined by MassHunter Workstation software (version B.09.00) after data collection from an Agilent Technologies 1290 Infinity (Santa Clara, CA, USA), with a C18 reversed-phase column (waters acquity premier BEH C18 1.7 µm 2.1 mm × 50 mm) being used at a flow rate of 0.6 mL/min and a temperature of 40 °C. […] That was coupled with a mass detector (Agilent Technologies 6530 Accurate-Mass Q-TOF LC/MS, Santa Clara, CA, USA) in positive mode, with the parameters set up as follows: drying gas temperature of 300 °C, drying gas of 8 L/min, nebulizer of 35 psi, sheath gas temperature of 350 °C, flow rate of sheath gas of 11 L/min, capillary voltage of 3.5 kV, nozzle voltage (expt) of 1 kV, fragmentor voltage of 175 V, skimmer voltage of 65 V, and octopole radiofrequency of 750 V. Accurate mass spectra were recorded in the m/z range of 100–1700. […]

With lichenysin the “Leaf infection by B. cinerea (disease level) after root treatment” value (from here on “Leaf infection by B. cinerea”) (Botrytis cinerea) was “significantly reduced leaf infection” and the “[ROS]intra burst in root protoplasts vs mock” value (shortened to “[ROS]intra burst … vs mock”) [1] was “significant boosting activity”.

In the case of pumilacidin, the “NO accumulation in roots vs mock” value [2] is reported as “no impact”, the “UPLC-MS elution order (relative hydrophobicity)” value [3] is reported as “then Pumi” and the “Leaf infection by B. cinerea” value (Botrytis cinerea) is reported as “no disease reduction”. The “[ROS]intra burst … vs mock” value [1] was “not active”.

For surfactin [Srf], the “NO accumulation in roots vs mock” value [2] was “fast accumulation of NO”, the “Srf-induced RNS (NO burst) in roots after pretreatment with Ca2+ chelator EGTA” value ([2]; EGTA 1 mM added three minutes before treatment, over 50 min, n = 8 from two independent experiments, Figure 4D) was “abolished” and the “Srf-induced RNS (NO burst) in roots after pretreatment with Ca2+ channel blocker LaCl3” value ([2]; LaCl3 10 mM added three minutes before treatment, over 50 min, n = 8 from two independent experiments, Figure 4C) was “abolished”. For the same substance, the “UPLC-MS elution order (relative hydrophobicity)” value [3] was “eluted first”, the “Leaf infection by B. cinerea” value (Botrytis cinerea) was “significantly reduced leaf infection” and the “[ROS]intra burst … vs mock” value [1] was “significant boosting activity”.
